One experiment relates to LXF-289. As to the kind of experiment: relative viability (nuclei count vs DMSO), 5 days (fraction); higher = more cells survive. The conditions noted are these: first compound 0.8 µM. The method, boiled down: (§1)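 Relative viability is defined as nuclei in treated wells over nuclei in vehicle wells. Duplicate plates were run and medians reported. Lung cancer cell lines in 1536-well plates were dosed by pin tool one day after seeding, with one drug or with a fixed anchor-drug dose plus five library-drug doses (not always all listed) in √10 steps, and nuclei were counted after 5 days.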
For `CCCCCCCCCCCC1=C(O)C(=O)C=C(O)C1=O` [Embelin] + N=C(N)NC(=N)NCCc1ccccc1 [Phenformin] (partner 250 µM), the relative viability is 0.547.

The compound `CCCCCCCCCCCC1=C(O)C(=O)C=C(O)C1=O` [Embelin] + O=C(c1cc(Cc2n[nH]c(=O)c3ccccc23)ccc1F)N1CCN(C(=O)C2CC2)CC1 [Olaparib] (partner 8 µM) came in with a relative viability of 1.17.

For the compound `CCCCCCCCCCCC1=C(O)C(=O)C=C(O)C1=O` [Embelin] + CC(=O)Nc1cccc(-n2c(=O)n(C3CC3)c(=O)c3c(Nc4ccc(I)cc4F)n(C)c(=O)c(C)c32)c1 [Trametinib] (partner 0.02 µM), the relative viability amounted to 0.737.

`CCCCCCCCCCCC1=C(O)C(=O)C=C(O)C1=O` [Embelin] + Nc1ncn([C@H]2C[C@H](O)[C@@H](CO)O2)c(=O)n1 [Decitabine] (partner 2 µM) had a relative viability of 0.419.

`CCCCCCCCCCCC1=C(O)C(=O)C=C(O)C1=O` [Embelin] + NC(=O)Nc1cc(-c2cccc(F)c2)sc1C(=O)N[C@H]1CCCNC1 [AZD7762] (partner 0.2 µM) displayed a relative viability of 1.16.

The same experiment, now with this note: first compound 2.53 µM.
`CCCCCCCCCCCC1=C(O)C(=O)C=C(O)C1=O` [Embelin] + N=C(N)NC(=N)NCCc1ccccc1 [Phenformin] (partner 250 µM) gave a relative viability of 0.527.

In the case of `CCCCCCCCCCCC1=C(O)C(=O)C=C(O)C1=O` [Embelin] + O=C(c1cc(Cc2n[nH]c(=O)c3ccccc23)ccc1F)N1CCN(C(=O)C2CC2)CC1 [Olaparib] (partner 8 µM), the relative viability was 1.26.

Turning to `CCCCCCCCCCCC1=C(O)C(=O)C=C(O)C1=O` [Embelin] + CC(=O)Nc1cccc(-n2c(=O)n(C3CC3)c(=O)c3c(Nc4ccc(I)cc4F)n(C)c(=O)c(C)c32)c1 [Trametinib] (partner 0.02 µM), the relative viability amounted to 0.722.

`CCCCCCCCCCCC1=C(O)C(=O)C=C(O)C1=O` [Embelin] + Nc1ncn([C@H]2C[C@H](O)[C@@H](CO)O2)c(=O)n1 [Decitabine] (partner 2 µM): the relative viability is 0.455.

On to `CCCCCCCCCCCC1=C(O)C(=O)C=C(O)C1=O` [Embelin] + NC(=O)Nc1cc(-c2cccc(F)c2)sc1C(=O)N[C@H]1CCCNC1 [AZD7762] (partner 0.2 µM), for which the relative viability worked out at 1.14.

The experiment is the same for the next values; noted with them: first compound 8 µM.
On to `CCCCCCCCCCCC1=C(O)C(=O)C=C(O)C1=O` [Embelin] + N=C(N)NC(=N)NCCc1ccccc1 [Phenformin] (partner 250 µM), for which the relative viability was 0.571.

As to `CCCCCCCCCCCC1=C(O)C(=O)C=C(O)C1=O` [Embelin] + O=C(c1cc(Cc2n[nH]c(=O)c3ccccc23)ccc1F)N1CCN(C(=O)C2CC2)CC1 [Olaparib] (partner 8 µM), the relative viability came to 1.14.

The compound `CCCCCCCCCCCC1=C(O)C(=O)C=C(O)C1=O` [Embelin] + CC(=O)Nc1cccc(-n2c(=O)n(C3CC3)c(=O)c3c(Nc4ccc(I)cc4F)n(C)c(=O)c(C)c32)c1 [Trametinib] (partner 0.02 µM) displayed a relative viability of 0.676.

With `CCCCCCCCCCCC1=C(O)C(=O)C=C(O)C1=O` [Embelin] + Nc1ncn([C@H]2C[C@H](O)[C@@H](CO)O2)c(=O)n1 [Decitabine] (partner 2 µM), the relative viability was determined as 0.352.

`CCCCCCCCCCCC1=C(O)C(=O)C=C(O)C1=O` [Embelin] + NC(=O)Nc1cc(-c2cccc(F)c2)sc1C(=O)N[C@H]1CCCNC1 [AZD7762] (partner 0.2 µM) registered a relative viability of 1.2.

The subject of another experiment is NCI-H1437. The description is as above. The conditions noted are these: first compound 0.08 µM. Summed up: as §1
On to `CCCCCCCCCCCC1=C(O)C(=O)C=C(O)C1=O` [Embelin] + N=C(N)NC(=N)NCCc1ccccc1 [Phenformin] (partner 250 µM), for which the relative viability worked out at 0.4.

Take `CCCCCCCCCCCC1=C(O)C(=O)C=C(O)C1=O` [Embelin] + O=C(c1cc(Cc2n[nH]c(=O)c3ccccc23)ccc1F)N1CCN(C(=O)C2CC2)CC1 [Olaparib] (partner 8 µM): the relative viability is 0.611.

Take `CCCCCCCCCCCC1=C(O)C(=O)C=C(O)C1=O` [Embelin] + CC(=O)Nc1cccc(-n2c(=O)n(C3CC3)c(=O)c3c(Nc4ccc(I)cc4F)n(C)c(=O)c(C)c32)c1 [Trametinib] (partner 0.02 µM): the relative viability was determined as 0.531.

For the compound `CCCCCCCCCCCC1=C(O)C(=O)C=C(O)C1=O` [Embelin] + Nc1ncn([C@H]2C[C@H](O)[C@@H](CO)O2)c(=O)n1 [Decitabine] (partner 2 µM), the relative viability came out at 0.541.

Compound `CCCCCCCCCCCC1=C(O)C(=O)C=C(O)C1=O` [Embelin] + NC(=O)Nc1cc(-c2cccc(F)c2)sc1C(=O)N[C@H]1CCCNC1 [AZD7762] (partner 0.2 µM) returned a relative viability of 1.15.

The same experiment, now with this note: first compound 0.8 µM.
Regarding `CCCCCCCCCCCC1=C(O)C(=O)C=C(O)C1=O` [Embelin] + N=C(N)NC(=N)NCCc1ccccc1 [Phenformin] (partner 250 µM), the relative viability turned out to be 0.324.

With `CCCCCCCCCCCC1=C(O)C(=O)C=C(O)C1=O` [Embelin] + O=C(c1cc(Cc2n[nH]c(=O)c3ccccc23)ccc1F)N1CCN(C(=O)C2CC2)CC1 [Olaparib] (partner 8 µM), the relative viability is 0.685.

Regarding `CCCCCCCCCCCC1=C(O)C(=O)C=C(O)C1=O` [Embelin] + CC(=O)Nc1cccc(-n2c(=O)n(C3CC3)c(=O)c3c(Nc4ccc(I)cc4F)n(C)c(=O)c(C)c32)c1 [Trametinib] (partner 0.02 µM), the relative viability is 0.607.

With `CCCCCCCCCCCC1=C(O)C(=O)C=C(O)C1=O` [Embelin] + Nc1ncn([C@H]2C[C@H](O)[C@@H](CO)O2)c(=O)n1 [Decitabine] (partner 2 µM), the relative viability was 0.623.

As for `CCCCCCCCCCCC1=C(O)C(=O)C=C(O)C1=O` [Embelin] + NC(=O)Nc1cc(-c2cccc(F)c2)sc1C(=O)N[C@H]1CCCNC1 [AZD7762] (partner 0.2 µM), the relative viability amounted to 1.16.

Still in this experiment, the particulars now being: first compound 2.53 µM.
On to `CCCCCCCCCCCC1=C(O)C(=O)C=C(O)C1=O` [Embelin] + N=C(N)NC(=N)NCCc1ccccc1 [Phenformin] (partner 250 µM), for which the relative viability is 0.298.

Take `CCCCCCCCCCCC1=C(O)C(=O)C=C(O)C1=O` [Embelin] + O=C(c1cc(Cc2n[nH]c(=O)c3ccccc23)ccc1F)N1CCN(C(=O)C2CC2)CC1 [Olaparib] (partner 8 µM): the relative viability is 0.639.

In turn, `CCCCCCCCCCCC1=C(O)C(=O)C=C(O)C1=O` [Embelin] + CC(=O)Nc1cccc(-n2c(=O)n(C3CC3)c(=O)c3c(Nc4ccc(I)cc4F)n(C)c(=O)c(C)c32)c1 [Trametinib] (partner 0.02 µM) gave a relative viability of 0.648.

Take `CCCCCCCCCCCC1=C(O)C(=O)C=C(O)C1=O` [Embelin] + Nc1ncn([C@H]2C[C@H](O)[C@@H](CO)O2)c(=O)n1 [Decitabine] (partner 2 µM): the relative viability was 0.568.

(Values after the supplement of paper PMC10307832.)
